In the test the target is T1, cow milk xanthine oxidase.
T1 construct: gene XDH; commercial enzyme from Himedia Laboratories; abstract says cow milk, reagent list says source: microorganisms
Put plainly: spectrophotometric uric acid formation at […] nm. The test is classed as biochemical. As to conditions: xanthine substrate (150 mM stock as printed, 2 mL added), phosphate buffer pH 7.5, 25 °C, 15 min preincubation, 30 min reaction.

A word on the IC50: it is the point on the concentration scale where inhibition reaches its midpoint. Read a low IC50 as higher potency.

Each structure is given as a SMILES string. ≈ marks a conversion by molar mass, not a printed value.

`O=c1[nH]cnc2[nH]ncc12` [Allopurinol] yielded an IC50 of 6.75 µg/mL (≈ 49.6 µM).

The values are drawn from PMC4157028, “HPTLC Analysis, Antioxidant and Antigout Activity of Indian Plants” (Iranian Journal of Pharmaceutical Research : IJPR, 2014).
